Paper PMC9030223, “MBP-11901 Inhibits Tumor Growth of Hepatocellular Carcinoma through Multitargeted Inhibition of Receptor Tyrosine Kinases” (Cancers, 2022)
“And” between values parts separate entries of the source, which are not always exact repeats. Identical values can stand only once.

Key:
[1] = test system: HepG2 cells; test: Transwell migration and invasion assay; format: cell-based, human; conditions: HepG2, dose-dependent
Method: For the migration assay, HepG2 cells were seeded into the upper Transwell chamber at a density of 2 × 10^4 cells and incubated for 24 h. For the invasion assay, 100 μL of Matrigel: serum-free media (1:4) mixture was placed on the filter membrane in the upper chamber and incubated (37 °C, 4 h) to seed cells. Cells were exposed to MBP-11901 and sorafenib for 2 h. Then, the medium in the upper chamber was changed to serum-free medium, whereas the medium in the lower chamber was changed to a medium containing 10% FBS. The medium was replaced once every 2–3 d. Following 6 d incubation, the upper surfaces of the filters were scraped 5 times with cotton swabs to remove nonmigrated cells, whereas cells crossing the membrane into the lower chamber were stained with 1% (w/v) crystal violet for 30 min. Crystal violet was removed and cells were washed with tap water. For the migration assay, after drying at 25 °C, 10% acetic acid solution was added to cells, and left to react in a shaker for 30 min. Absorbance was measured at 590 nm using a microplate reader (SpectraMax i3, Molecular Devices). For the invasion assay, the number of migrated cells was counted.

[2] = test system: HepG2 cells; test: Colony formation assay; format: cell-based, human
Method: HepG2 cells were seeded in a 6-well plate at a density of 2 × 10^4 cells/well and incubated for 24 h. Cells were treated with MBP-11901 and sorafenib for 2 h and media was changed with fresh one. Cells were incubated for 8 d and the medium was replaced once every 2–3 d. The medium was carefully removed, cells were washed with PBS, and fixed with 100% methanol for 30 min. After removing methanol, cells were stained with 0.5% (w/v) crystal violet for 30 min, and washed with tap water. The plate was dried at 25 °C and images were captured under a microscope (Nikon Eclipse Ts2, Tokyo, Japan). The stained area was automatically measured using ImageJ. This experiment was independently performed 3 times. The area of the colony was calculated as a percentage of the total area of the well.

[3] = Pharmacokinetics in mice (data not shown); format: in vivo
[4] = target: T1, EGFR (Homo sapiens, UniProt P00533); test: KdELECT binding constant
T1 construct: purchased Eurofins DiscoverX Corporation
Method: (§1) The profiling of MBP-11901 against a panel of 468 kinases was performed by DiscoverX using KINOMEscan technology, an active-site-dependent competition-binding assay (Eurofins DiscoverX Corporation, San Diego, CA, USA). Binding constants (Kd) were calculated by DiscoverX using KdELECT technology, a widely used assay for comparing selectivity across the kinome. The DiscoverX platform reports the thermodynamic Kd to facilitate direct comparison of inhibitor affinity across the kinome, independent of ATP concentration.

[5] = target: T2, FGFR1 (Homo sapiens, UniProt P11362); test: KdELECT binding constant
T2 construct: purchased Eurofins DiscoverX Corporation
Method: as §1

[6] = target: T3, FGFR2 (Homo sapiens, UniProt P21802); test: KdELECT binding constant
T3 construct: purchased Eurofins DiscoverX Corporation
Method: as §1

[7] = target: T4, KIT (Homo sapiens, UniProt P10721); test: KdELECT binding constant; conditions: mean ± S.D. (n = 2)
T4 construct: purchased Eurofins DiscoverX Corporation
Method: as §1

[8] = test system: HepG2 xenograft tumor; test: HepG2 subcutaneous xenograft, dose study (19 d); conditions: for Toxic deaths/total: 19 d; for Body weight loss rate (%) / Tumor growth inhibition rate (%): day 19; for tumor weight per mouse: after 19 d, vehicle control 0.31 ± 0.089 g; for average tumor volume: end of 9 administrations, start 200 mm^3, saline approx. 1000 mm^3
[9] = tumors, compared with vehicle control

T1 sequence (P00533 25-1210): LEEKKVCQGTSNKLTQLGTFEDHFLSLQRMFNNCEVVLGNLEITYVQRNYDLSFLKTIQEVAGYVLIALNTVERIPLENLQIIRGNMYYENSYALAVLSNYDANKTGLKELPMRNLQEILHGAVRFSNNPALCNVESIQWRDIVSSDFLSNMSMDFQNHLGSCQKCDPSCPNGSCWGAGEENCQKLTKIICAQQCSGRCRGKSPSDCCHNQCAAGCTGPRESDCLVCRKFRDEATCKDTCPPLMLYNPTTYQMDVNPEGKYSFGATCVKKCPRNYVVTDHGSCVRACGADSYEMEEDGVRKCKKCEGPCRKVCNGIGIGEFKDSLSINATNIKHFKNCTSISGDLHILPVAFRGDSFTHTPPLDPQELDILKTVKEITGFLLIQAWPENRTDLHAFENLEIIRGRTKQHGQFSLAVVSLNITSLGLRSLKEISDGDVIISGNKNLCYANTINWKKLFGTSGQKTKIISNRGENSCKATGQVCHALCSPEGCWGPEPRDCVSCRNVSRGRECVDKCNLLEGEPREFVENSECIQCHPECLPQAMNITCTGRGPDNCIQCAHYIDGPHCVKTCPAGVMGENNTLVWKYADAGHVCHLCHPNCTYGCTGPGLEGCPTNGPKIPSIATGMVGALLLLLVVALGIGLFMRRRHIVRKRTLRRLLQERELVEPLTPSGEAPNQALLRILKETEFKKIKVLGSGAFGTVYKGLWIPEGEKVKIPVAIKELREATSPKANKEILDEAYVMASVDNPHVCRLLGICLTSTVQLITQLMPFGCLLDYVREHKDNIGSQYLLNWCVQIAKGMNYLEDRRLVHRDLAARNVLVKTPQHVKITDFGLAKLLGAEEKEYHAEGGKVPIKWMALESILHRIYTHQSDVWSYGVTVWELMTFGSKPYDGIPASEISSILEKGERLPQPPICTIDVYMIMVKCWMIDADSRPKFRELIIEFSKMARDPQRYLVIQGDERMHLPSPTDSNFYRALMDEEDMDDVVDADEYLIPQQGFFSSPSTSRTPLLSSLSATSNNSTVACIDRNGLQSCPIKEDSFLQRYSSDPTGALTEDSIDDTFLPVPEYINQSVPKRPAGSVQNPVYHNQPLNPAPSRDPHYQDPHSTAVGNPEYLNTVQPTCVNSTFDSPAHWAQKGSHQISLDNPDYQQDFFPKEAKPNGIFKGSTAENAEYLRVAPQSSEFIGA
T3 sequence (P21802 22-821): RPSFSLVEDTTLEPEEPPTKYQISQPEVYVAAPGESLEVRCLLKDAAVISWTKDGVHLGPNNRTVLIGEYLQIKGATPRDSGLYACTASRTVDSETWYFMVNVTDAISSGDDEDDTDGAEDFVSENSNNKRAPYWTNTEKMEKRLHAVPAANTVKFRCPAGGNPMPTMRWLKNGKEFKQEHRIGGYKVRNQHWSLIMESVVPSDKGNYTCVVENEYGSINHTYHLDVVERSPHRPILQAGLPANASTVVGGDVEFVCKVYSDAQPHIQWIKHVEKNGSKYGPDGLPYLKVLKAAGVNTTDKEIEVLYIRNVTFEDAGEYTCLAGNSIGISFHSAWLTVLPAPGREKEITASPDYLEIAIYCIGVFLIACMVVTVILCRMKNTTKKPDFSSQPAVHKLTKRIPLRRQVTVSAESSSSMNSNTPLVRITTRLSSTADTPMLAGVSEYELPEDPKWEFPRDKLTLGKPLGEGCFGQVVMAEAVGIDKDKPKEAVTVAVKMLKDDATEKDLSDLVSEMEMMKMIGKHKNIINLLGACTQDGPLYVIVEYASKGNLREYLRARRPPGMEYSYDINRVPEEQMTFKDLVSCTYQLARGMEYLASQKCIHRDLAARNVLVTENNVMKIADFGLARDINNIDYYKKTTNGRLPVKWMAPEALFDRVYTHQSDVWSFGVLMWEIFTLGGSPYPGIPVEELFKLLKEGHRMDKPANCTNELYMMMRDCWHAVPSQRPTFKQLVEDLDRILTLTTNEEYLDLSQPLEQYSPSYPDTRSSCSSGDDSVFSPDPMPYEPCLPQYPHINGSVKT
T4 sequence (P10721 26-976): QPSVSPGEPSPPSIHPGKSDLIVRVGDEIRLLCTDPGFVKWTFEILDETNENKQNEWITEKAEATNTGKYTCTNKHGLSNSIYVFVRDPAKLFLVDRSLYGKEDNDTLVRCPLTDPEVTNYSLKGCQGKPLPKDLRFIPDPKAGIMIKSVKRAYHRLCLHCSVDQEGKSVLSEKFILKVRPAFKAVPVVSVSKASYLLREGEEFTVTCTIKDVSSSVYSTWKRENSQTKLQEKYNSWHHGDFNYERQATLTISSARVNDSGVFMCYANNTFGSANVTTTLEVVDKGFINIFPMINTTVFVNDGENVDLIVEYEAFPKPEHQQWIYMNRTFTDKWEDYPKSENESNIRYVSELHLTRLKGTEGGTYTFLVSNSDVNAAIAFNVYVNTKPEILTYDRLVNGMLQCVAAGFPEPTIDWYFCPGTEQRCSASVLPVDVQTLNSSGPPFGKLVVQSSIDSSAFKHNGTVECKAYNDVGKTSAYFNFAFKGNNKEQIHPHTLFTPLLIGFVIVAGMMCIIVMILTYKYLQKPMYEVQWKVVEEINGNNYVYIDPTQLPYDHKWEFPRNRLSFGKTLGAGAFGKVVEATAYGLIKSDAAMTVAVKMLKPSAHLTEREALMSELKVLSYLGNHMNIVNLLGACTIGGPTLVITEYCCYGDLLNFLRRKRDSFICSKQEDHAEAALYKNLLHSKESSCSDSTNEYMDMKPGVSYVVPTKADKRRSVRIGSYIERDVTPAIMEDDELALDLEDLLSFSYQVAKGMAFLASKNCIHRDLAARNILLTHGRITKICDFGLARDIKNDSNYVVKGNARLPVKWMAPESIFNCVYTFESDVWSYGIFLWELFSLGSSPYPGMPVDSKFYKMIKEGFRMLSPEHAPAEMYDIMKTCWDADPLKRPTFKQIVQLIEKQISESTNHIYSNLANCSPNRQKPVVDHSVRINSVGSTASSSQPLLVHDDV
T2 sequence (P11362 22-822): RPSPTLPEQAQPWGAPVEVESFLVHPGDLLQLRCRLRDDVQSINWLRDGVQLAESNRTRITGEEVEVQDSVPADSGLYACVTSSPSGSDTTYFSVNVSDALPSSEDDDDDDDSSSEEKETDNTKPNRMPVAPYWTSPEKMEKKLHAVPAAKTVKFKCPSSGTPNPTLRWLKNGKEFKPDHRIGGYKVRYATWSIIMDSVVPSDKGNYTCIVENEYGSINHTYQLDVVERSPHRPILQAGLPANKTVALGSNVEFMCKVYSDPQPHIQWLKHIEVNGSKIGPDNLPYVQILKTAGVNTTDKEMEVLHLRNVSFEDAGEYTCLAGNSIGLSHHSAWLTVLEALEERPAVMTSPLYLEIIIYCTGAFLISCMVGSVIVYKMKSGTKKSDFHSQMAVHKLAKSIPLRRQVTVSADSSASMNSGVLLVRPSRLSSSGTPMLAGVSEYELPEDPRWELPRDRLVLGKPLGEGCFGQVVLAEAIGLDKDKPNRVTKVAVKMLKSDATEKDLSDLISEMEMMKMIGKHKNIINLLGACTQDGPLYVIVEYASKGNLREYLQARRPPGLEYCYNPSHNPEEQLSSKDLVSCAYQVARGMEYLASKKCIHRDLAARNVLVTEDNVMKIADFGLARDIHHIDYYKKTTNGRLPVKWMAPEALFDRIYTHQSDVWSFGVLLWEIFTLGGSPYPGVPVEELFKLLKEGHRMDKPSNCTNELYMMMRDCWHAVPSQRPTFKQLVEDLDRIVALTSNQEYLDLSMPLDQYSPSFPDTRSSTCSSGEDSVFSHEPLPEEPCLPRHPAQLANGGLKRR

NCC(N)C(=O)Nc1ccc(-c2nc3ccccc3s2)cc1 (stereo not shown) [MBP-11901]
migration and invasion of tumor cells [1]: highly inhibited | colony formation ([2]; HepG2, 5 μM): significant reduction | colony growth ([2]; HepG2, high concentrations, compared with sorafenib): almost no colony growth was observed | bioavailability [3]: significantly high | half-life [3]: long | Kd [4]: > 30 µM | Kd [5]: > 30 µM | Kd [6]: > 30 µM | Kd [7]: 3.85 ± 1.15 µM | Toxic deaths/total ([8]; 40 mg/kg oral once every 2 d): 0/8 | Body weight loss rate (%) ([8]; 40 mg/kg oral once every 2 d): 2.00 ± 2.47 % | Tumor growth inhibition rate (%) ([8]; 40 mg/kg oral once every 2 d): 61.41 ± 0.45% | tumor weight per mouse ([8]; 40 mg/kg): 0.082 ± 0.063 g | average tumor volume ([8]; 40 mg/kg): approximately 350 mm^3 | animals in which the tumor completely disappeared ([8]; 60 mg/kg group): 3 out of 8 | Toxic deaths/total ([8]; 60 mg/kg oral once every 2 d): 0/8 | Body weight loss rate (%) ([8]; 60 mg/kg oral once every 2 d): 1.50 ± 1.97 % | Tumor growth inhibition rate (%) ([8]; 60 mg/kg oral once every 2 d): 85.26 ± 0.36% | tumor weight per mouse ([8]; 60 mg/kg): 0.025 ± 0.035 g | average tumor volume ([8]; 60 mg/kg): ~150 mm^3 | animals in which the tumor completely disappeared ([8]; 82 mg/kg group): 4 out of 8 | Toxic deaths/total ([8]; 82 mg/kg oral once every 2 d): 0/8 | Body weight loss rate (%) ([8]; 82 mg/kg oral once every 2 d): 1.78 ± 4.40 % | Tumor growth inhibition rate (%) ([8]; 82 mg/kg oral once every 2 d): 92.54 ± 0.02% and 92.54 ± 0.0 % | tumor weight per mouse ([8]; 82 mg/kg): 0.011 ± 0.009 g | average tumor volume ([8]; 82 mg/kg): ~70 mm^3 | apoptosis in tumors (cleaved caspase-3) [8, 9]: high level of apoptosis | proliferation of tumor cells (Ki-67) [8, 9]: significant reduction
